Test results from patent US20260097022A1, “COMPOUNDS AND USES THEREOF” (Integrated Biosciences, Inc., priority 2023, published 2026).
Counter-ions that a name gives are not always drawn.

test system: etoposide-treated IMR-90 cells; test: Etoposide-induced senescence model, resazurin cell viability (screen and dose-response); type: cell-based, human; settings: 1 μM, 3 days
Procedure, shortened: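 IMR-90 fibroblasts made senescent with 50 μM etoposide for 2 days, then 4 days recovery before plating. Compounds at 10 μM or 1 μM final (screen) or three-fold dilutions (1% DMSO) for 3 days, then 0.15 mM resazurin 1 day, fluorescence 550/590 nm. Viability expressed as fraction of untreated controls; biological duplicates.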

Which “senolytic activity in screen” value does the source give for `Cc1noc(NS(=O)(=O)c2ccc(N)cc2)c1C` [sulfisoxazole, reference compound] here?
The value was “active”.

Which “senolytic activity in screen” value does the source give for `CN(C)CCCN1c2ccccc2CCc2ccccc21` [imipramine hydrochloride, reference compound] here?
The value was “active”.

same assay, conditions: etoposide-induced senescence model; ratio of IC50 values between etoposide- and DMSO-treated IMR-90 fibroblasts

For `CCOc1ccc(C(=O)Nc2ccc3nc(SCC(=O)Nc4ccc(C)cc4)sc3c2)cc1` [compound 94], which “Therapeutic Index (TI)” value is on record?
The value was “++ (compounds with a TI of 1 to 5 were labelled as ++)”.

Which “Therapeutic Index (TI)” value does the source give for `COc1cccc(C(=O)Nc2ccc3nc(SCC(=O)Nc4ccccc4C)sc3c2)c1` [compound 165] here?
Its value is “+ (Compounds with a TI of <1 were labelled as +)”.

With `COc1ccccc1C(=O)Nc1ccc2nc(SCC(=O)Nc3ccc(C)cc3C)sc2c1` [compound 168] as the molecule, how does the “Therapeutic Index (TI)” value read?
Its value is “+ (Compounds with a TI of <1 were labelled as +)”.

Which “Therapeutic Index (TI)” value does the source give for `O=C(CSc1nc2ccc(NC(=O)c3ccccc3Cl)cc2s1)Nc1ccc(F)cc1` [compound 23] here?
Its value is “+++ (compounds with a TI of >5 were labeled as +++)”.

For `O=C(Nc1ccc2nc(SCC(=O)N3CCc4ccccc43)sc2c1)c1ccccc1Cl` [compound 132], which “Therapeutic Index (TI)” value is on record?
The value was “++ (compounds with a TI of 1 to 5 were labelled as ++)”.

Which “Therapeutic Index (TI)” value does the source give for `Cc1ccccc1C(=O)Nc1ccc2nc(SCC(=O)Nc3ccc(Br)cc3)sc2c1` [compound 121] here?
The value was “++ (compounds with a TI of 1 to 5 were labelled as ++)”.

With `COc1ccc(C(=O)Nc2ccc3nc(SCC(=O)N4CCc5ccccc54)sc3c2)cc1` [compound 33] as the molecule, how does the “Therapeutic Index (TI)” value read?
The value was “++ (compounds with a TI of 1 to 5 were labelled as ++)”.

Which “Therapeutic Index (TI)” value does the source give for `COc1ccccc1C(=O)Nc1ccc2nc(SCC(=O)Nc3cc(C)cc(C)c3)sc2c1` [compound 147] here?
Its value is “+ (Compounds with a TI of <1 were labelled as +)”.

With `COc1ccc(NC(=O)CSc2nc3ccc(NC(=O)c4ccc(C)cc4)cc3s2)cc1` [compound 115] as the molecule, how does the “Therapeutic Index (TI)” value read?
Its value is “++ (compounds with a TI of 1 to 5 were labelled as ++)”.

With `CCCCOc1ccc(C(=O)Nc2ccc3nc(SCC(=O)Nc4ccccc4)sc3c2)cc1` [compound 76] as the molecule, how does the “Therapeutic Index (TI)” value read?
The value was “++ (compounds with a TI of 1 to 5 were labelled as ++)”.

With `COc1ccc(CNC(=O)CSc2nc3ccc(NC(=O)c4ccccc4C)cc3s2)cc1` [compound 161] as the molecule, how does the “Therapeutic Index (TI)” value read?
Its value is “+ (Compounds with a TI of <1 were labelled as +)”.

For `CCOc1ccc(NC(=O)CSc2nc3ccc(N4C(=O)c5ccccc5C4=O)cc3s2)cc1` [compound 25], which “Therapeutic Index (TI)” value is on record?
Its value is “+++ (compounds with a TI of >5 were labeled as +++)”.

For `COc1ccccc1C(=O)Nc1ccc2nc(SCC(=O)Nc3ccccc3)sc2c1` [compound 104], which “Therapeutic Index (TI)” value is on record?
Its value is “++ (compounds with a TI of 1 to 5 were labelled as ++)”.

With `Cc1ccccc1NC(=O)CSc1nc2ccc(NC(=O)c3ccccc3C)cc2s1` [compound 152] as the molecule, how does the “Therapeutic Index (TI)” value read?
Its value is “+ (Compounds with a TI of <1 were labelled as +)”.

With `CCOc1ccc(NC(=O)CSc2nc3ccc(NC(=O)c4ccccc4)cc3s2)cc1` [compound 166] as the molecule, how does the “Therapeutic Index (TI)” value read?
Its value is “+ (Compounds with a TI of <1 were labelled as +)”.

Which “Therapeutic Index (TI)” value does the source give for `COc1ccccc1C(=O)Nc1ccc2nc(SCC(=O)Nc3ccccc3C)sc2c1` [compound 130] here?
The value was “++ (compounds with a TI of 1 to 5 were labelled as ++)”.

With `Cc1ccc(C(=O)Nc2ccc3nc(SCC(=O)Nc4ccccc4)sc3c2)cc1` [compound 36] as the molecule, how does the “Therapeutic Index (TI)” value read?
Its value is “++ (compounds with a TI of 1 to 5 were labelled as ++)”.

With `O=C(CSc1nc2ccc(NC(=O)c3ccccc3)cc2s1)NC[C@H]1CCCO1` [compound 8] as the molecule, how does the “Therapeutic Index (TI)” value read?
The value was “+++ (compounds with a TI of >5 were labeled as +++)”.

For `CC(=O)Nc1ccc(NC(=O)CSc2nc3ccc(NC(=O)c4ccccc4)cc3s2)cc1` [compound 135], which “Therapeutic Index (TI)” value is on record?
The value was “++ (compounds with a TI of 1 to 5 were labelled as ++)”.

For `Cc1ccc(NC(=O)CSc2nc3ccc(NC(=O)c4ccccc4C)cc3s2)c(C)c1` [compound 99], which “Therapeutic Index (TI)” value is on record?
The value was “++ (compounds with a TI of 1 to 5 were labelled as ++)”.

For `Cc1ccc(C(=O)Nc2ccc3nc(SCC(=O)Nc4ccccc4F)sc3c2)cc1` [compound 56], which “Therapeutic Index (TI)” value is on record?
The value was “++ (compounds with a TI of 1 to 5 were labelled as ++)”.

For `COC(=O)c1ccc(NC(=O)CSc2nc3ccc(NC(=O)c4ccccc4F)cc3s2)cc1` [compound 105], which “Therapeutic Index (TI)” value is on record?
Its value is “++ (compounds with a TI of 1 to 5 were labelled as ++)”.

With `COc1ccc(NC(=O)CSc2nc3ccc(NC(=O)c4cccc(F)c4)cc3s2)cc1` [compound 48] as the molecule, how does the “Therapeutic Index (TI)” value read?
The value was “++ (compounds with a TI of 1 to 5 were labelled as ++)”.

Which “Therapeutic Index (TI)” value does the source give for `COc1ccc(NC(=O)CSc2nc3ccc(NC(=O)c4ccccc4C)cc3s2)cc1` [compound 52] here?
The value was “++ (compounds with a TI of 1 to 5 were labelled as ++)”.

Which “Therapeutic Index (TI)” value does the source give for `Cc1ccc(C(=O)Nc2ccc3nc(SCC(=O)N4CCc5ccccc54)sc3c2)cc1` [compound 18] here?
The value was “+++ (compounds with a TI of >5 were labeled as +++)”.

With `CCCCOc1ccc(NC(=O)CSc2nc3ccc(NC(=O)c4cccc5ccccc45)cc3s2)cc1` [compound 54] as the molecule, how does the “Therapeutic Index (TI)” value read?
The value was “++ (compounds with a TI of 1 to 5 were labelled as ++)”.

With `Cc1cccc(NC(=O)CSc2nc3ccc(NC(=O)c4ccccc4)cc3s2)c1C` [compound 150] as the molecule, how does the “Therapeutic Index (TI)” value read?
The value was “+ (Compounds with a TI of <1 were labelled as +)”.

With `Cc1cccc(C(=O)Nc2ccc3nc(SCC(=O)Nc4ccccc4C)sc3c2)c1` [compound 7] as the molecule, how does the “Therapeutic Index (TI)” value read?
The value was “+++ (compounds with a TI of >5 were labeled as +++)”.

Which “Therapeutic Index (TI)” value does the source give for `Cc1cccc(C(=O)Nc2ccc3nc(SCC(=O)Nc4ccccc4)sc3c2)c1` [compound 106] here?
The value was “++ (compounds with a TI of 1 to 5 were labelled as ++)”.

With `Cc1ccc(NC(=O)CSc2nc3ccc(NC(=O)c4ccccc4C)cc3s2)cc1` [compound 141] as the molecule, how does the “Therapeutic Index (TI)” value read?
The value was “++ (compounds with a TI of 1 to 5 were labelled as ++)”.

With `COc1ccc(NC(=O)CSc2nc3ccc(NC(=O)c4cccc(C)c4)cc3s2)cc1` [compound 55] as the molecule, how does the “Therapeutic Index (TI)” value read?
Its value is “++ (compounds with a TI of 1 to 5 were labelled as ++)”.

Which “Therapeutic Index (TI)” value does the source give for `O=C(CSc1nc2ccc(NC(=O)c3ccccc3)cc2s1)Nc1ccc(F)cc1` [compound 140] here?
Its value is “++ (compounds with a TI of 1 to 5 were labelled as ++)”.

For `O=C(CSc1nc2ccc(NC(=O)c3ccccc3)cc2s1)Nc1ccccc1` [compound 142], which “Therapeutic Index (TI)” value is on record?
The value was “+ (Compounds with a TI of <1 were labelled as +)”.

Which “Therapeutic Index (TI)” value does the source give for `CCOc1ccc(NC(=O)CSc2nc3ccc(NC(=O)c4ccccc4OC)cc3s2)cc1` [compound 40] here?
The value was “++ (compounds with a TI of 1 to 5 were labelled as ++)”.

Which “Therapeutic Index (TI)” value does the source give for `CCCCOc1ccc(NC(=O)CSc2nc3ccc(NC(=O)c4ccccc4Cl)cc3s2)cc1` [compound 148] here?
Its value is “+ (Compounds with a TI of <1 were labelled as +)”.

Which “Therapeutic Index (TI)” value does the source give for `CCCCOc1ccc(NC(=O)CSc2nc3ccc(NC(=O)c4ccc(OCCCC)cc4)cc3s2)cc1` [compound 86] here?
The value was “++ (compounds with a TI of 1 to 5 were labelled as ++)”.

Which “Therapeutic Index (TI)” value does the source give for `COc1ccccc1C(=O)Nc1ccc2nc(SCC(=O)N3CCc4ccccc43)sc2c1` [compound 30] here?
The value was “++ (compounds with a TI of 1 to 5 were labelled as ++)”.

For `CC(=O)c1ccc(NC(=O)CSc2nc3ccc(NC(=O)c4ccc(C)cc4)cc3s2)cc1` [compound 154], which “Therapeutic Index (TI)” value is on record?
The value was “+ (Compounds with a TI of <1 were labelled as +)”.

Which “Therapeutic Index (TI)” value does the source give for `COc1ccccc1C(=O)Nc1ccc2nc(SCC(=O)Nc3ccc(C(C)C)cc3)sc2c1` [compound 155] here?
The value was “+ (Compounds with a TI of <1 were labelled as +)”.

Which “Therapeutic Index (TI)” value does the source give for `Cc1ccccc1C(=O)Nc1ccc2nc(SCC(=O)Nc3cccc(Cl)c3)sc2c1` [compound 107] here?
Its value is “++ (compounds with a TI of 1 to 5 were labelled as ++)”.

For `COc1ccccc1NC(=O)CSc1nc2ccc(NC(=O)c3ccccc3OC)cc2s1` [compound 28], which “Therapeutic Index (TI)” value is on record?
The value was “+++ (compounds with a TI of >5 were labeled as +++)”.

For `Cc1ccc(NC(=O)CSc2nc3ccc(NC(=O)c4ccccc4)cc3s2)c(C)c1` [compound 88], which “Therapeutic Index (TI)” value is on record?
Its value is “++ (compounds with a TI of 1 to 5 were labelled as ++)”.

For `O=C(CSc1nc2ccc(NC(=O)c3ccccc3)cc2s1)Nc1cccc([N+](=O)[O-])c1` [compound 87], which “Therapeutic Index (TI)” value is on record?
Its value is “++ (compounds with a TI of 1 to 5 were labelled as ++)”.

For `Cc1cccc(NC(=O)CSc2nc3ccc(NC(=O)c4cccc5ccccc45)cc3s2)c1C` [compound 102], which “Therapeutic Index (TI)” value is on record?
Its value is “++ (compounds with a TI of 1 to 5 were labelled as ++)”.

test system: human red blood cells; test: Hemolysis assay; type: cell-based; settings: concentrations ≥0.01% (w/w); positive control
Method: Hemolysis assay. Whole human blood containing EDTA (Innovative Resarch IWB1K2E) was centrifuged at 120×g at 4° C., for 5 min and resuspended in Dulbecco's PBS (DPBS: VWR 02-0119-0500). These washing steps were repeated until the supernatant was clear. Red blood cells were then resuspended in DPBS to 5×10^8 cells/mL, and 100 μL of cells was plated into each well of a 96-well clear round-bottom plate. Compounds were added to the indicated concentrations, and DMSO was used as a vehicle. Samples were incubated for 1 h at 37° C., without shaking, after which plates were centrifuged at 1500×g at room temperature for 5 min to pellet cells. 60 μL of the supernatant from each sample was then transferred to a 96-well clear flat-bottom plate, and the absorbance was read at 405 nm using a SpectraMax M3 plate reader to quantify the amount of soluble hemoglobin. Fractional hemolysis was determined by linearly interpolating absorbance values with respect to a positive control (saturation with 10% Triton X-100) and a negative control (1% DMSO vehicle). Results are depicted in FIG. 14.

Which hemolysis does the source give for Triton X-100 [reference compound] here?
Its hemolysis is “substantial hemolysis”.

test system: primary human T-cells; test: Cytotoxicity to T-cells in vitro; type: cell-based; settings: at about 0.1 μM

For `CC1(C)CCC(CN2CCN(c3ccc(C(=O)NS(=O)(=O)c4ccc(NCC5CCOCC5)c([N+](=O)[O-])c4)c(Oc4cnc5[nH]ccc5c4)c3)CC2)=C(c2ccc(Cl)cc2)C1` [ABT-199], which T-cell death is on record?
Its T-cell death is “substantial cell death”.

same assay, conditions: primary human T-cells; read-out: T-cell cytotoxicity IC50

For `CC1(C)CCC(CN2CCN(c3ccc(C(=O)NS(=O)(=O)c4ccc(NCC5CCOCC5)c([N+](=O)[O-])c4)c(Oc4cnc5[nH]ccc5c4)c3)CC2)=C(c2ccc(Cl)cc2)C1` [ABT-199], which IC50 is on record?
Its IC50 is roughly 1000 nM.

test system: not given; test: not given; settings: cited from earlier work

With `O=c1c(O)c(-c2ccc(O)c(O)c2)oc2cc(O)ccc12` [fisetin] as the molecule, how does the bioavailability read?
Its bioavailability is “limited bioavailability”.
